Results taken from US20220175836A1, “PRIMING WITH TARGETED ACTIVATED T CELLS CAN ENHANCE CHEMO RESPONSIVENESS OF CANCER CELLS” (University of Virginia Patent Foundation, priority 2019, published 2022).
Like-named read-outs stand apart in the source and are kept apart here.

Key:
CFPAC cells = assay: IC50 concentration in CFPAC cells; format: cell-based
BxPC-3 cells = assay: IC50 concentration in BxPC-3 cells; format: cell-based
L3.6 = assay: IC50 concentration in L3.6 cells; format: cell-based
PANC-1 = assay: IC50 concentration by MTT colorimetric assay; format: cell-based, human
Procedure: (§1) MiaPaCa-2 and PANC-1 cells were trypsinized, washed, and incubated overnight in a humidified incubator. Each condition was performed in quadruplicate with 3×10^3 cells/well on a 96-well flat bottom plate. […] After drug treatment, 15 μL of the MTT dye solution was added to each well and incubated for 4 hours in a humidified incubator. The reaction was stopped by adding 100 μL of solubilization solution and the plate was incubated for an additional hour at room temperature. The wells were mixed and the absorbance was measured at 570 nm using a Synergy HTX Plate Reader. The % inhibition was calculated using the following equation: […]

MiaPaCa-2 = assay: IC50 concentration by MTT colorimetric assay; format: cell-based, human
Procedure: as §1

Pancreatic cancer (PC) = conditions: advanced or recurrent disease patients; cited from earlier work

IC50 (CFPAC cells; no unit printed at b33, read-out: IC50 dose)	IC50 (BxPC-3 cells; Homo sapiens)	IC50 (MiaPaCa-2; Homo sapiens, MIA PaCa-2, MiaPaCa-2, 72 hours treatment, MTT)	Compound	IC50 (CFPAC cells; read-out: IC50 concentration)	IC50 (L3.6)	IC50 (BxPC-3 cells)	IC50 (PANC-1; PANC-1, 72 hours treatment, MTT)	IC50 (PANC-1; PANC-1, no unit printed at b274)	IC50 (MiaPaCa-2; MiaPaCa-2, 72 hours treatment, MTT)	IC50 (MiaPaCa-2; MiaPaCa-2, no unit printed at b274)	median survival (Pancreatic cancer (PC))
5 µM	14.6 µM	–	O=c1[nH]cc(F)c(=O)[nH]1 [5FU, 5 fluorouracil]	5 µM	–	–	–	–	–	–	–
–	–	–	N.N.[Cl][Pt][Cl] [CIS, cisplatin]	10 µM	16 µM	6.9 µM	14 µM	14 µM	18.6 µM	18.6 µM	–
–	–	15.6 µM	Nc1ccn([C@@H]2O[C@H](CO)[C@@H](O)C2(F)F)c(=O)n1 [Gem, gemcitabine]	–	12 µM	–	–	–	–	–	6.7 months
